In patent publication US10750743B2, “Pyridazinone herbicides” (E.I. DU PONT DE NEMOURS AND COMPANY, priority 2015, dated 2020):

Assays:
Format in all cases: in vivo
[1] = tested on: foxtail, giant (giant foxtail, Setaria faberii); experiment: Test A postemergence application, visual injury rating; conditions: for Foxtail, Giant plant response rating: 0 to 100 scale, 0 no effect, 100 complete control
Source text: (§1) Seeds of plant species selected from barnyardgrass (Echinochloa crus-galli), kochia (Kochia scoparia), ragweed (common ragweed, Ambrosia elatior), ryegrass, It. (Italian ryegrass, Lolium multiflorum), foxtail, giant (giant foxtail, Setaria faberii), and pigweed (Amaranthus retroflexus), were planted into a blend of loam soil and sand and treated preemergence with a directed soil spray using test chemicals formulated in a non-phytotoxic solvent mixture which included a surfactant.
(§2) At the same time, plants selected from these weed species and also wheat (Triticum aestivum), corn (Zea mays), blackgrass (Alopecurus myosuroides), and galium (catchweed bedstraw, Galium aparine), were planted in pots containing the same blend of loam soil and sand and treated with postemergence applications of test chemicals formulated in the same manner Plants ranged in height from 2 to 10 cm and were in the one- to two-leaf stage for the postemergence treatment. Treated plants and untreated controls were maintained in a greenhouse for approximately 10 d, after which time all treated plants were compared to untreated controls and visually evaluated for injury. Plant response ratings, summarized in Table A, are based on a 0 to 100 scale where 0 is no effect and 100 is complete control. A dash (-) response means no test result.

[2] = tested on: blackgrass (Alopecurus myosuroides); experiment: as above; conditions: 0 to 100 scale, 0 no effect, 100 complete control
Source text: as §1, §2

[3] = tested on: kochia (Kochia scoparia); experiment: as above; conditions: 0 to 100 scale, 0 no effect, 100 complete control
Source text: as §1, §2

[4] = tested on: corn (Zea mays); experiment: as above; conditions: for Corn plant response rating: 0 to 100 scale, 0 no effect, 100 complete control
Source text: as §1, §2

[5] = tested on: ryegrass, It. (Italian ryegrass, Lolium multiflorum); experiment: as above; conditions: for Ryegrass, It. plant response rating: 0 to 100 scale, 0 no effect, 100 complete control
Source text: as §1, §2

[6] = tested on: ragweed (common ragweed, Ambrosia elatior); experiment: as above; conditions: for Ragweed plant response rating: 0 to 100 scale, 0 no effect, 100 complete control
Source text: as §1, §2

[7] = tested on: barnyardgrass (Echinochloa crus-galli); experiment: as above; conditions: 0 to 100 scale, 0 no effect, 100 complete control
Source text: as §1, §2

[8] = tested on: wheat (Triticum aestivum); experiment: as above; conditions: for Wheat plant response rating: 0 to 100 scale, 0 no effect, 100 complete control
Source text: as §1, §2

[9] = tested on: galium (catchweed bedstraw, Galium aparine); experiment: as above; conditions: for Galium plant response rating: 0 to 100 scale, 0 no effect, 100 complete control
Source text: as §1, §2

[10] = tested on: pigweed (Amaranthus retroflexus); experiment: as above; conditions: for Pigweed plant response rating: 0 to 100 scale, 0 no effect, 100 complete control
Source text: as §1, §2

[11] = tested on: foxtail, giant (giant foxtail, Setaria faberii); experiment: Test A preemergence, directed soil spray, visual injury rating; conditions: 0 is no effect, 100 is complete control
Source text: as §1, §2

[12] = tested on: kochia (Kochia scoparia); experiment: as above; conditions: 0 is no effect, 100 is complete control
Source text: as §1, §2

[13] = tested on: ryegrass, It. (Italian ryegrass, Lolium multiflorum); experiment: as above; conditions: 0 is no effect, 100 is complete control
Source text: as §1, §2

[14] = tested on: ragweed (common ragweed, Ambrosia elatior); experiment: as above; conditions: 0 is no effect, 100 is complete control
Source text: as §1, §2

[15] = tested on: barnyardgrass (Echinochloa crus-galli); experiment: as above; conditions: 0 is no effect, 100 is complete control
Source text: as §1, §2

[16] = tested on: pigweed (Amaranthus retroflexus); experiment: as above; conditions: 0 is no effect, 100 is complete control
Source text: as §1, §2

[17] = tested on: rice (Oryza sativa); experiment: Test B flooded paddy test, visual rating; conditions: Flood, 250 g ai/ha, applied to paddy water, rated after 13 to 15 d
Experimental: (§3) Plant species in the flooded paddy test selected from rice (Oryza sativa), sedge, umbrella (small-flower umbrella sedge, Cyperus difformis), ducksalad (Heteranthera limosa), and barnyardgrass (Echinochloa crus-galli) were grown to the 2-leaf stage for testing. At time of treatment, test pots were flooded to 3 cm above the soil surface, treated by application of test compounds directly to the paddy water, and then maintained at that water depth for the duration of the test. Treated plants and controls were maintained in a greenhouse for 13 to 15 d, after which time all species were compared to controls and visually evaluated. Plant response ratings, summarized in Table B, are based on a scale of 0 to 100 where 0 is no effect and 100 is complete control. A dash (-) response means no test result.

[18] = tested on: barnyardgrass (Echinochloa crus-galli); experiment: Test B flooded paddy test, visual rating; conditions: Flood, 250 g ai/ha, applied to paddy water, rated after 13 to 15 d
Experimental: as §3

[19] = tested on: sedge, umbrella (small-flower umbrella sedge, Cyperus difformis); experiment: Test B flooded paddy test, visual rating; conditions: Flood, 250 g ai/ha, applied to paddy water, rated after 13 to 15 d
Experimental: as §3

[20] = tested on: ducksalad (Heteranthera limosa); experiment: Test B flooded paddy test, visual rating; conditions: Flood, 250 g ai/ha, applied to paddy water, rated after 13 to 15 d
Experimental: as §3

[21] = 31 g ai/ha, 0 is no effect, 100 is complete control

SMILES | Foxtail, Giant plant response rating ([1]; 125 g ai/ha) | Blackgrass plant response rating ([2]; 31 g ai/ha) | Blackgrass plant response rating ([2]; 125 g ai/ha) | Corn plant response rating ([4]; 125 g ai/ha) | Ryegrass, It. plant response rating ([5]; 125 g ai/ha) | Ragweed plant response rating ([6]; 125 g ai/ha) | Barnyardgrass plant response rating ([7]; 125 g ai/ha) | Wheat plant response rating ([8]; 125 g ai/ha) | Galium plant response rating ([9]; 125 g ai/ha) | Pigweed plant response rating ([10]; 125 g ai/ha) | Plant response rating (0 to 100 scale), Foxtail, Giant ([11]; 125 g ai/ha) | Plant response rating (0 to 100 scale), Kochia ([12]; 125 g ai/ha) | Plant response rating (0 to 100 scale), Ryegrass, It. ([13]; 125 g ai/ha) | Plant response rating (0 to 100 scale), Ragweed ([14]; 125 g ai/ha) | Plant response rating (0 to 100 scale), Barnyardgrass ([15]; 125 g ai/ha) | Plant response rating (0 to 100 scale), Pigweed ([16]; 125 g ai/ha) | Rice plant response rating (0 to 100 scale, 0 is no effect, 100 is complete control) [17] | Barnyardgrass plant response rating (0 to 100 scale, 0 is no effect, 100 is complete control) [18] | Sedge, Umbrella plant response rating (0 to 100 scale, 0 is no effect, 100 is complete control) [19] | Ducksalad plant response rating (0 to 100 scale, 0 is no effect, 100 is complete control) [20] | also measured
COC(=O)Oc1c(C)nn(C)c(=O)c1-c1c(C)ccc2cc(C)oc12 [Compound 17] | 50 | 10 | 40 | 0 | 100 | 80 | 20 | 0 | 100 | 100 | 10 | 100 | 90 | 90 | 0 | 100 | 0 | 0 | 0 | 0 | Foxtail, Giant plant response rating ([1]; 31 g ai/ha): 20; Kochia plant response rating ([3]; 31 g ai/ha): 70; Kochia plant response rating ([3]; 125 g ai/ha): 90; Corn plant response rating ([4]; 31 g ai/ha): 0; Ryegrass, It. plant response rating ([5]; 31 g ai/ha): 50; Ragweed plant response rating ([6]; 31 g ai/ha): 70; Barnyardgrass plant response rating ([7]; 31 g ai/ha): 10; Wheat plant response rating ([8]; 31 g ai/ha): 0; Galium plant response rating ([9]; 31 g ai/ha): 80; Pigweed plant response rating ([10]; 31 g ai/ha): 60; Plant response rating (0 to 100 scale), Foxtail, Giant ([11]; 31 g ai/ha): 0; Plant response rating (0 to 100 scale), Kochia ([12]; 31 g ai/ha): 40; Plant response rating (0 to 100 scale), Ryegrass, It. ([13]; 31 g ai/ha): 40; Plant response rating (0 to 100 scale), Ragweed ([14]; 31 g ai/ha): 30; Plant response rating (0 to 100 scale), Barnyardgrass ([15]; 31 g ai/ha): 0; Plant response rating (0 to 100 scale), Pigweed ([16]; 31 g ai/ha): 30
Cc1ccc2ccoc2c1-c1c(O)c(C)nn(C)c1=O [Compound 7] | 80 | – | 80 | 0 | 100 | 90 | 30 | 20 | 100 | 90 | 20 | 30 | 100 | 40 | 10 | 100 | 0 | 0 | 0 | 0 | Foxtail, Giant plant response rating ([1]; 500 g ai/ha): 90; Blackgrass plant response rating ([2]; 500 g ai/ha): 90; Kochia plant response rating ([3]; 125 g ai/ha): 100; Kochia plant response rating ([3]; 500 g ai/ha): 100; Corn plant response rating ([4]; 500 g ai/ha): 60; Ryegrass, It. plant response rating ([5]; 500 g ai/ha): 100; Ragweed plant response rating ([6]; 500 g ai/ha): 90; Barnyardgrass plant response rating ([7]; 500 g ai/ha): 80; Wheat plant response rating ([8]; 500 g ai/ha): 70; Galium plant response rating ([9]; 500 g ai/ha): 100; Pigweed plant response rating ([10]; 500 g ai/ha): 90; Plant response rating (0 to 100 scale), Foxtail, Giant ([11]; 500 g ai/ha): 90; Plant response rating (0 to 100 scale), Kochia ([12]; 500 g ai/ha): 90; Plant response rating (0 to 100 scale), Ryegrass, It. ([13]; 500 g ai/ha): 100; Plant response rating (0 to 100 scale), Ragweed ([14]; 500 g ai/ha): 90; Plant response rating (0 to 100 scale), Barnyardgrass ([15]; 500 g ai/ha): 90; Plant response rating (0 to 100 scale), Pigweed ([16]; 500 g ai/ha): 100
CC(=O)Oc1c(Cl)nn(C)c(=O)c1-c1cccc2cccnc12 [Compound 71] | 30 | 10 | 70 | 0 | 90 | 70 | 40 | 30 | 80 | 50 | 10 | 30 | 80 | 10 | 20 | 60 | 0 | 0 | 0 | 0 | Plant response rating (0 to 100 scale), Foxtail, Giant [1, 21]: 10; Plant response rating (0 to 100 scale), Corn [4, 21]: 0; Plant response rating (0 to 100 scale), Ryegrass, It. [5, 21]: 50; Plant response rating (0 to 100 scale), Ragweed [6, 21]: 30; Barnyardgrass plant response rating ([7]; 31 g ai/ha): 10; Plant response rating (0 to 100 scale), Wheat [8, 21]: 0; Plant response rating (0 to 100 scale), Galium [9, 21]: 60; Plant response rating (0 to 100 scale), Pigweed [10, 21]: 20; Plant response rating (0 to 100 scale), Foxtail, Giant ([11]; 31 g ai/ha): 0; Plant response rating (0 to 100 scale), Kochia ([12]; 31 g ai/ha): 0; Plant response rating (0 to 100 scale), Ryegrass, It. ([13]; 31 g ai/ha): 20; Plant response rating (0 to 100 scale), Ragweed ([14]; 31 g ai/ha): 0; Plant response rating (0 to 100 scale), Barnyardgrass ([15]; 31 g ai/ha): 0; Plant response rating (0 to 100 scale), Pigweed ([16]; 31 g ai/ha): 0
